Columns and labels:
[1] = tested on: Septoria tritici (SEPTTR); experiment: 1-day protectant test (1DP) vs. leaf blotch of wheat; assay type: in vivo; settings: Zymoseptoria tritici, read-out: % DC Obs (percent disease control observed); for pest or weed control at 0.2 ppm: application rate 0.2 ppm; for pest or weed control at 1.5 g/ha: application rate 1.5 g ai/Ha, SC formulation, track sprayer
Description: (§1) Evaluation of Curative and Protectant Activity of Fungicide Mixtures vs. Leaf Blotch of Wheat (Mycosphaerella graminicola; anamorph: Septoria tritici; Bayer code: SEPTTR)
(§2) Wheat plants (variety Yuma) were grown from seed in a greenhouse in plastic pots with a surface area of 27.5 square centimeters (cm2) containing 50% mineral soil/50% soil-less Metro mix, with 8-12 seedlings per pot. The plants were employed for testing when the first leaf was fully emerged, which typically took 7 to 8 days after planting. Test plants were inoculated with an aqueous spore suspension of Septoria tritici either 3-days prior to (3-day curative test; 3DC) or 1-day after fungicide treatments (1-day protectant test; 1DP). After inoculation the plants were kept at 100% relative humidity (one day in a dark dew chamber followed by two days in a lighted mist chamber) to permit spores to germinate and infect the leaf. The plants were then transferred to a greenhouse until disease symptoms were fully expressed.
(§3) For the mixture studies with compound of Formula IA: Treatments consisted of fungicides, including a compound of Formula IA, epoxiconazole, prothioconazole, azoxystrobin, pyraclostrobin, penthiopyrad, isopyrazam, bixafen, boscalid, prochloraz, chlorothalonil, and isobutyric acid (3S,6S,7R,8R)-8-benzyl-3-[(3-isobutyryloxymethoxy-4-methoxypyridine-2-carbonyl)-amino]-6-methyl-4,9-dioxo-[1,5]dioxonan-7-yl ester (compound A), applied either individually or as two-way mixtures with a compound of Formula IA. Technical grades of materials were dissolved in acetone to make stock solutions, which were then used to perform three-fold dilutions in acetone either for each individual fungicide component or for the two-way mixtures. Desired fungicide rates were obtained after mixing dilutions with nine volumes of water containing 110 parts per million (ppm) Triton X-100. Ten mL fungicide solutions were applied onto six pots of plants using an automated booth sprayer, which utilized two 6218-1/4 JAUPM spray nozzles operating at 20 pounds per square inch (psi) set at opposing angles to cover both leaf surfaces. All sprayed plants were allowed to air dry prior to further handling. Control plants were sprayed in the same manner with the solvent blank.
(§4) For the mixture studies with compound of Formula IB: Compound IB and the compound B or their two-way mixtures were diluted in three-fold series using suspension concentrate (SC) formulations in 0.1% Trycol 5941. Spray solutions were applied onto plants using a track sprayer with an application volume of 200 Liters/hectare (L/Ha).
(§5) When disease reached 80 to 100% on the control plants, infection levels were assessed on treated plants visually and scored on a scale of 0 to 100 percent. Percentage of disease control was then calculated using the ratio of disease on treated plants relative to control plants.
(§6) Colby's equation was used to determine the fungicidal effects expected from the mixtures. (See Colby, S. R. Calculation of the synergistic and antagonistic response of herbicide combinations. Weeds 1967, 15, 20-22.)
(§7) The following equation was used to calculate the expected activity of mixtures containing two active ingredients, A and B:
(§8) A=observed efficacy of active component A at the same concentration as used in the mixture;
(§9) B=observed efficacy of active component B at the same concentration as used in the mixture.

[2] = tested on: Septoria tritici (SEPTTR); experiment: 3-day curative test (3DC) vs. leaf blotch of wheat; assay type: in vivo; settings: Zymoseptoria tritici, read-out: % DC Obs (percent disease control observed); for pest or weed control at 0.2 ppm: application rate 0.2 ppm; for pest or weed control at 1.5 g/ha: application rate 1.5 g ai/Ha, SC formulation, track sprayer
Description: as §1, §2, §3, §4, §5, §6, §7, §8, §9

[3] = 1DP SEPTTR, application rate 0.6 ppm
[4] = 1DP SEPTTR, application rate 1.8 ppm
[5] = 3DC SEPTTR, application rate 0.6 ppm
[6] = 3DC SEPTTR, application rate 1.8 ppm
[7] = 1DP SEPTTR, application rate 5.6 ppm
[8] = 3DC SEPTTR, application rate 5.6 ppm

**Q.** For CCCN(CCOc1c(Cl)cc(Cl)cc1Cl)C(=O)n1ccnc1 [Prochloraz, N-propyl-N-[2-(2,4,6-trichlorophenoxy)ethyl]-1H-imidazole-1-carboxamide], which pest or weed control at 1.8 ppm [1] is on record?
**A.** 10%

**Q.** What about the pest or weed control at 5.6 ppm [1] of the same compound?
**A.** 33%

**Q.** What about the pest or weed control at 1.8 ppm [2] of the same compound?
**A.** 24%

**Q.** What about the pest or weed control at 5.6 ppm [2] of the same compound?
**A.** 22%

**Q.** What does the source list for CC(C)CC(C)c1sccc1NC(=O)c1cn(C)nc1C(F)(F)F (stereo not drawn) [Penthiopyrad, N-[2-(1,3-dimethylbutyl)-3-thienyl]-1-methyl-3-(trifluoromethyl)-1H-pyrazole-4-carboxamide]?
**A.** pest or weed control at 0.2 ppm ([1]; 1DP SEPTTR): 2%; pest or weed control at 0.6 ppm [1, 3]: 10%; pest or weed control at 1.8 ppm [1, 4]: 17%; pest or weed control at 0.2 ppm ([2]; 3DC SEPTTR): 8%; pest or weed control at 0.6 ppm [2, 5]: 4%; pest or weed control at 1.8 ppm [2, 6]: 4%

**Q.** What does the source list for CO/C=C(/C(=O)OC)c1ccccc1Oc1cc(Oc2ccccc2C#N)ncn1 [Azoxystrobin, methyl (αE)-2-[[6-(2-cyanophenoxy)-4-pyrimidinyl]oxy]-α-(methoxymethylene)benzeneacetate]?
**A.** pest or weed control at 0.6 ppm [1, 3]: 3%; pest or weed control at 1.8 ppm [1, 4]: 3%; pest or weed control at 5.6 ppm [1, 7]: 33%; pest or weed control at 0.6 ppm [2, 5]: 10%; pest or weed control at 1.8 ppm [2, 6]: 14%; pest or weed control at 5.6 ppm [2, 8]: 20%

**Q.** How did the pest or weed control at 0.03 ppm ([1]; 1DP SEPTTR, application rate 0.03 ppm) turn out when Cc1ccc(COc2ncc(F)c(N)n2)cc1 [Compound IA] was run?
**A.** 2%

**Q.** And the pest or weed control at 0.1 ppm ([1]; 1DP SEPTTR, application rate 0.1 ppm)?
**A.** 3%

**Q.** What about the pest or weed control at 0.3 ppm ([1]; 1DP SEPTTR, application rate 0.3 ppm) of the same compound?
**A.** 0%

**Q.** What about the pest or weed control at 0.9 ppm ([1]; 1DP SEPTTR, application rate 0.9 ppm) of the same compound?
**A.** 22%

**Q.** What about the pest or weed control at 2.8 ppm ([1]; 1DP SEPTTR, application rate 2.8 ppm) of the same compound?
**A.** 85%

**Q.** And the pest or weed control at 8.3 ppm ([1]; 1DP SEPTTR, application rate 8.3 ppm)?
**A.** 98%

**Q.** And the pest or weed control at 0.03 ppm ([2]; 3DC SEPTTR, application rate 0.03 ppm)?
**A.** 2%

**Q.** And the pest or weed control at 0.1 ppm ([2]; 3DC SEPTTR, application rate 0.1 ppm)?
**A.** 4%

**Q.** And the pest or weed control at 0.3 ppm ([2]; 3DC SEPTTR, application rate 0.3 ppm)?
**A.** 10%

**Q.** What about the pest or weed control at 0.9 ppm ([2]; 3DC SEPTTR, application rate 0.9 ppm) of the same compound?
**A.** 44%

**Q.** What about the pest or weed control at 2.8 ppm ([2]; 3DC SEPTTR, application rate 2.8 ppm) of the same compound?
**A.** 94%

**Q.** And the pest or weed control at 8.3 ppm ([2]; 3DC SEPTTR, application rate 8.3 ppm)?
**A.** 100%

**Q.** What does the source list for Fc1cc(Oc2cc(C(F)(F)F)ccn2)ccc1CCNc1ncnc2c(F)ccc(F)c12 [B, (5,8-Difluoroquinazolin-4-yl)-{2-[2-fluoro-4-(4-trifluoromethylpyridin-2-yloxy)-phenyl]-ethyl}-amine]?
**A.** pest or weed control at 1.5 g/ha ([1]; 1DP SEPTTR): 36%; pest or weed control at 1.5 g/ha ([2]; 3DC SEPTTR): 41%

**Q.** For CC(C)C1C2CCC1c1c(NC(=O)c3cn(C)nc3C(F)F)cccc12 (stereo not drawn) [Isopyrazam, 3-(difluoromethyl)-1-methyl-N-[1,2,3,4-tetrahydro-9-(1-methylethyl)-1,4-methanonaphthalen-5-yl]-1H-pyrazole-4-carboxamide], which pest or weed control at 0.6 ppm [1] is on record?
**A.** 15%

**Q.** What about the pest or weed control at 1.8 ppm [1] of the same compound?
**A.** 23%

**Q.** What about the pest or weed control at 0.6 ppm [2] of the same compound?
**A.** 10%

**Q.** And the pest or weed control at 1.8 ppm [2]?
**A.** 18%

**Q.** With Cn1cc(C(=O)Nc2ccc(F)cc2-c2ccc(Cl)c(Cl)c2)c(C(F)F)n1 [Bixafen, N-(3′,4′-dichloro-5-fluoro[1,1′-biphenyl]-2-yl)-3-(difluoromethyl)-1-methyl-1H-pyrazole-4-carboxamide] as the compound, how does the pest or weed control at 0.2 ppm ([1]; 1DP SEPTTR) read?
**A.** 3%

**Q.** What about the pest or weed control at 0.6 ppm [1, 3] of the same compound?
**A.** 7%

**Q.** What about the pest or weed control at 1.8 ppm [1, 4] of the same compound?
**A.** 12%

**Q.** What about the pest or weed control at 0.2 ppm ([2]; 3DC SEPTTR) of the same compound?
**A.** 6%

**Q.** What about the pest or weed control at 0.6 ppm [2, 5] of the same compound?
**A.** 4%

**Q.** What about the pest or weed control at 1.8 ppm [2, 6] of the same compound?
**A.** 14%

**Q.** What does the source list for OC(Cc1ccccc1Cl)(Cn1[nH]cnc1=S)C1(Cl)CC1 (stereo not drawn) [Prothioconazole, 2-[2-(1-chlorocyclopropyl)-3-(2-chlorophenyl)-2-hydroxypropyl]-1,2-dihydro-3H-1,2,4-triazole-3-thione]?
**A.** pest or weed control at 0.6 ppm [1, 3]: 2%; pest or weed control at 1.8 ppm [1, 4]: 2%; pest or weed control at 5.6 ppm [1, 7]: 25%; pest or weed control at 0.6 ppm [2, 5]: 10%; pest or weed control at 1.8 ppm [2, 6]: 8%; pest or weed control at 5.6 ppm [2, 8]: 20%

**Q.** For N#Cc1c(Cl)c(Cl)c(Cl)c(C#N)c1Cl [Chlorothalanil, 2,4,5,6-tetrachloro-1,3-benzenedicarbonitrile], which pest or weed control at 13.5 ppm ([1]; 1DP SEPTTR, application rate 13.5 ppm) is on record?
**A.** 0%

**Q.** What about the pest or weed control at 42 ppm ([1]; 1DP SEPTTR, application rate 42 ppm) of the same compound?
**A.** 2%

**Q.** And the pest or weed control at 125 ppm ([1]; 1DP SEPTTR, application rate 125 ppm)?
**A.** 0%

**Q.** What about the pest or weed control at 13.5 ppm ([2]; 3DC SEPTTR, application rate 13.5 ppm) of the same compound?
**A.** 4%

**Q.** What about the pest or weed control at 42 ppm ([2]; 3DC SEPTTR, application rate 42 ppm) of the same compound?
**A.** 4%

**Q.** And the pest or weed control at 125 ppm ([2]; 3DC SEPTTR, application rate 125 ppm)?
**A.** 6%

**Q.** Fc1ccc([C@]2(Cn3cncn3)O[C@H]2c2ccccc2Cl)cc1 [Epoxiconazole, re1-1-[[(2R,3S)-3-(2-chlorophenyl)-2-(4-fluorophenyl)oxiranyl]methyl]-1H-1,2,4-triazole] was tested. Which pest or weed control at 0.125 ppm ([1]; 1DP SEPTTR, application rate 0.125 ppm) did it give?
**A.** 2%

**Q.** What about the pest or weed control at 0.375 ppm ([1]; 1DP SEPTTR, application rate 0.375 ppm) of the same compound?
**A.** 83%

**Q.** And the pest or weed control at 0.125 ppm ([2]; 3DC SEPTTR, application rate 0.125 ppm)?
**A.** 18%

**Q.** And the pest or weed control at 0.375 ppm ([2]; 3DC SEPTTR, application rate 0.375 ppm)?
**A.** 46%

**Q.** What does the source list for O=C(Nc1ccccc1-c1ccc(Cl)cc1)c1cccnc1Cl [Boscalid, 2-chloro-N-(4′-chloro[1,1′-biphenyl]-2-yl)-3-pyridinecarboxamide]?
**A.** pest or weed control at 1.8 ppm [1, 4]: 5%; pest or weed control at 5.6 ppm [1, 7]: 30%; pest or weed control at 1.8 ppm [2, 6]: 12%; pest or weed control at 5.6 ppm [2, 8]: 34%

**Q.** For COc1ccnc(C(=O)N[C@H]2COC(=O)[C@H](Cc3ccccc3)[C@@H](OC(=O)C(C)C)[C@H](C)OC2=O)c1OCOC(=O)C(C)C [A, Isobutyric acid (3S,6S,7R,8R)-8-benzyl-3-[(3-isobutyryloxymethoxy-4-methoxy-pyridine-2-carbonyl)-amino]-6-methyl-4,9-dioxo-[1,5]dioxonan-7-yl ester], which pest or weed control at 0.45 ppm [1] is on record?
**A.** 3%

**Q.** And the pest or weed control at 1.35 ppm [1]?
**A.** 80%

**Q.** And the pest or weed control at 0.45 ppm [2]?
**A.** 22%

**Q.** And the pest or weed control at 1.35 ppm [2]?
**A.** 52%

**Q.** How did the pest or weed control at 1.5 g/ha ([1]; 1DP SEPTTR) turn out when Nc1nc(OCc2ccc(F)cc2)ncc1F [Compound IB] was run?
**A.** 46%

**Q.** What about the pest or weed control at 1.5 g/ha ([2]; 3DC SEPTTR) of the same compound?
**A.** 74%

Reference: US20110053966A1, “SYNERGISTIC FUNGICIDAL COMPOSITIONS CONTAINING A 5-FLUOROPYRIMIDINE DERIVATIVE FOR FUNGAL CONTROL IN CEREALS” (DOW AGROSCIENCES LLC, priority 2009, published 2011)
